Laboratory results published in paper PMC3457943, “Inhibition of poly(ADP-ribose) Polymerase Interferes with Trypanosoma cruzi Infection and Proliferation of the Parasite” (PLoS ONE, 2012).
pIC50, pKi: −log10 of the molar value. Like-named read-outs stand apart in the source and are kept apart here.

What was measured:
[1] = tested on: T. cruzi amastigotes; set-up: method as in PMID 6330132; details: millimolar concentrations, mainly axenic amastigote cultures; cited from earlier work
[2] = biological target: TcPARP (Trypanosoma cruzi, UniProt Q4PQV7); assay: Homogeneous fluorometric TcPARP activity assay (remaining NAD+); type: biochemical; details: 10 nM TcPARP, 500 nM NAD+; for pIC50: read-out: TcPARP IC50; for IC50: read-out: TcPARP pIC50±SE (converted)
Chain of TcPARP (Trypanosoma cruzi, UniProt Q4PQV7) (Q4PQV7 1-592): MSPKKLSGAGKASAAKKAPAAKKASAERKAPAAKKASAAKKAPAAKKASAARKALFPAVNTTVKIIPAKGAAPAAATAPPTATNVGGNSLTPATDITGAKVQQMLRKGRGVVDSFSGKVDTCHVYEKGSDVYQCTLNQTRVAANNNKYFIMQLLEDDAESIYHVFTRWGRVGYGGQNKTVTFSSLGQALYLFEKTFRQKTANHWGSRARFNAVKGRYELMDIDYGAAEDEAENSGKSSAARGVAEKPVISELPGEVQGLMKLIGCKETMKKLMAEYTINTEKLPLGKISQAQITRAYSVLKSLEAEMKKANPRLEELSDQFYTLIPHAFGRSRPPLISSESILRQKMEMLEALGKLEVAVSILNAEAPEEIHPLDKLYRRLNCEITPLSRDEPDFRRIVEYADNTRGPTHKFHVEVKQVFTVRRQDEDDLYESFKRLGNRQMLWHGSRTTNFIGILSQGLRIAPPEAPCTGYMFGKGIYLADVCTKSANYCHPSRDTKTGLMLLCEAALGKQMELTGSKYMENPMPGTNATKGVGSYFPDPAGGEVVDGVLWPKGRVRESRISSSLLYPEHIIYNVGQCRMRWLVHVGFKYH
Experimental: (§1) Enzymatic activity was measured using a fluorometric assay, which quantifies the remaining NAD^+ after the enzymatic reaction, [10]. Briefly, TcPARP was incubated with 500 nM NAD^+ in a 96-well U-bottom black propylene plate (Greiner BioOne) in a final volume of 50 µl. The reaction was carried out at 25°C with shaking at 300 rpm using PST-60 HL plus Thermo Shaker (Biosan, Riga, Latvia). The reaction was terminated by the addition of 20 µl of 2 M KOH and 20 µl of 20% acetophenone in ethanol, and plate was incubated at room temperature for 10 minutes. Next, 90 µl of 88% formic acid was added and the plate was incubated at room temperature for 20 minutes. The fluorescence was measured on a Fluoroskan Ascent FL (Thermo Labsystems, Waltham, MA) using excitation at 355 nm and emission at 460 nm. The activity assay was optimized for TcPARP by assaying the effect of pH, DNA concentration, and various additives for the activity of the protein.
(§2) A small in-house library of known PARP inhibitors was screened to evaluate their inhibitory effect against TcPARP. The inhibitor stock solutions were prepared at 10 mM in 100% DMSO and stored at −20°C, except in the case of 3-aminobenzamide, which was prepared at a stock concentration of 1 M in 100% DMSO. The compounds were screened in duplicates at 10 µM and 1 µM concentrations with separate controls for each including only NAD^+ and the compound, but not TcPARP. The protein concentration in the reactions was 10 nM.
(§3) The IC50 value for the first generation PARP inhibitor 3-AB was determined as a reference value. The separate data points were measured in quadruplicates. […] The fluorescence signal was converted to inhibition percentage and fitted using sigmoidal dose-response fitting with variable slope (Graphpad Prism). The curves were extrapolated to 0% and 100% of inhibition by setting their inhibitor concentration 2 log units below or above the first and the last inhibitor concentration, respectively.

[3] = tested on: hPARP-1; details: cited from earlier work
[4] = tested on: T. cruzi epimastigotes; assay: Epimastigote growth inhibition assay (OD 600 nm); type: cell-based, Trypanosoma cruzi
Experimental: T. cruzi epimastigotes were grown in LIT complete medium for 4 days up to a parasite density of 10^7 parasites/ml. The culture was placed in 96-well sterile plates in 100 µl aliquots and PARP inhibitors were added. Nifurtimox and β-lapachone were used as control compounds. DMSO control was used at 1% v/v concentration. Optical density of the cultures was determined at 600 nm each day for four days to follow parasite growth. Controls for LIT growth medium bearing no parasites were also performed. In all experiments performed, conditions were tested in triplicates. Significance of the results were analysed with one-way ANOVA using GraphPad Prism version 5.03 for Windows (GraphPad Software).

[5] = tested on: T. cruzi epimastigotes; set-up: method as in PMID 17936287; details: millimolar concentrations; cited from earlier work
[6] = tested on: pADPr formation in T. cruzi epimastigotes; assay: In vivo inhibition of pADPr formation in epimastigotes challenged with hydrogen peroxide (Western blot); type: cell-based, Trypanosoma cruzi; details: 30 min pre-incubation, 300 µM hydrogen peroxide 10 min
Experimental: Cell viability was assessed by direct microscopic examination.
Trypanosoma cruzi epimastigotes were grown in LIT complete medium for 4 days up to a parasite density of 10^7 parasites/ml. Parasites were collected by centrifugation at 750×g for 5 minutes and resuspended in PBS-Glucose 2%. T. cruzi epimastigotes were pre-incubated in the presence of inhibitors for 30 minutes and treated with 300 µM hydrogen peroxide for 10 minutes. Cells were harvested by centrifugation at 1500×g, washed with PBS and resuspended in lysis buffer (50 mM Tris–HCl pH 8.0, 1.0 mM EDTA, 10% (v/v) glycerol, 10 mM 2-mercaptoethanol). Protease inhibitors 1 µg/mL trans-epoxysuccinyl-L-leucylamido(4-guanidino) butane (E-64), […], 1 mM phenylmethylsulfonylfluoride (PMSF), and 0.1 mM Na-tosyl-L-lysine chloro-methyl ketone (TLCK) and inhibitor 3-AB (1 mM) were added. Cells were lysed with an Ultrasonic Processor Model W385 Sonicator (Heat Systems-Ultrasonic Inc. Plainview) and the whole extract obtained was used for Western blot. 30 µg of protein were run on 10% SDS–PAGE gel and transferred to Amersham Hybond-ECL nitrocellulose membrane (GE healthcare), according to the manufacturer's instructions. […] The signal was detected with the Western Lightning Plus-ECL (PerkinElmer).

[7] = tested on: TcPARP; assay: Homogeneous fluorometric TcPARP activity assay (remaining NAD+); type: biochemical, Trypanosoma cruzi; details: TcPARP IC50 versus literature hPARP-1 IC50
Experimental: as §1, §2, §3

[8] = tested on: pADPr formation in human cells; set-up: method as in earlier work; details: cited from earlier work
[9] = tested on: Trypanosoma cruzi infection of Vero cells; assay: Trypanosoma cruzi infection of Vero cells; type: cell-based
Experimental: (§4) Vero cells were cultured in D-MEM medium (Gibco), supplemented with 2 mM L-glutamine, 10% (v/v) FCS, 100 U/ml penicillin and 100 mg/l streptomycin. The wild type (Sigma-Aldrich) and PARP silenced (sh_PARP) pulmonary adenocarcinoma A549 cell lines were provided by Dr. Virág and Dr. Erdélyi, from the University of Debrecen, Hungary. A549 cells were grown in RPMI-1640 medium (Gibco), supplemented with 2 mM L-glutamine, 1 mM Sodium Pyruvate, 10% (v/v) FCS, 100 U/ml penicillin and 100 mg/l streptomycin.
Trypomastigotes were collected by centrifugation of the supernatant of previously infected cultures at 1500×g at room temperature for 7 minutes and incubated for 3 hours at 37°C in order to allow the trypomastigotes to move from the pellet into the supernatant. After this period, the supernatant was collected and trypomastigotes were counted in a Neubauer chamber. […] For this, 50 trypomastigotes/cell were added to the medium of 24 hour-old monolayers and incubated for 24 hours at 37°C, after which they were removed by changing the cell culture medium. Infections were performed in the media above indicated, but supplemented with 3% (v/v) FCS.
The infection was allowed to proceed and growth medium was changed periodically during the first 5 days. […] At the indicated days, cells were fixed and stained by May Grünwald Giemsa technique. Cells were visualized using an Olympus BX41 microscope. Amastigotes and cells were counted using the ImageJ software in at least 7 microscopic fields. […] Alternatively, trypomastigotes in the supernatant of the cell cultures were counted without prior fixation on a Neubauer Chamber at the indicated days. All experiments were performed in triplicates. Significance of the results were analysed with two-way ANOVA using GraphPad Prism version 5.03 for Windows (GraphPad Software).

[10] = tested on: Vero cells; assay: Growth of uninfected Vero cells; type: cell-based; details: presence or absence of Olaparib
[11] = tested on: Trypanosoma cruzi infection of A549 wild type cells; assay: Trypanosoma cruzi infection of A549 cells; type: cell-based; details: 25 nM
Experimental: as §4
Trypomastigotes were collected by centrifugation of the supernatant of previously infected cultures at 1500×g at room temperature for 7 minutes and incubated for 3 hours at 37°C in order to allow the trypomastigotes to move from the pellet into the supernatant. After this period, the supernatant was collected and trypomastigotes were counted in a Neubauer chamber. […]
The infection was allowed to proceed and growth medium was changed periodically during the first 5 days. […] Amastigotes and cells were counted using the ImageJ software in at least 7 microscopic fields. […] Alternatively, trypomastigotes in the supernatant of the cell cultures were counted without prior fixation on a Neubauer Chamber at the indicated days. […] Significance of the results were analysed with two-way ANOVA using GraphPad Prism version 5.03 for Windows (GraphPad Software).

Compound | pIC50 [2] | pIC50 [3] | IC50 [2] [nM] | other results
COc1cccc(C(N)=O)c1 [3-methoxybenzamide] |  |  |  | inhibition of differentiation of amastigotes to trypomastigotes [1]: able to inhibit differentiation of amastigotes to trypomastigotes
Cn1cccc1/C=C1\C(=O)NC(=O)c2ccccc21 [BYK204165, (4Z)-4-[(1-methyl-1H-pyrrol-2-yl)methylidene]-1,2,3,4-tetrahydroisoquinoline-1,3-dione] | 6.74 | 7.35 |  | TcPARP pIC50±SE [2]: 6.74±0,090
NC(=O)c1cccc2ncc(-c3ccc(Cl)cc3)nc12 [CNQ, 3-(4-chlorophenyl)quinoxaline-5-carboxamide] | 6.77 | 7.48 | 174 | 
NC(=O)c1cccc(N)c1 [Compound 3-AB, 3-aminobenzamide] | 4.59 | 4.48 | 26300 | reduction of parasite growth compared to the control ([4]; 660 µM): approximately 60%; reduction of parasite growth compared to the control ([4]; 6.6 mM): approximately 60%; effect on T. cruzi epimastigote growth [5]: able to reduce T. cruzi epimastigote growth; inhibition of differentiation of amastigotes to trypomastigotes [1]: to a lesser extent
Nc1ccc2c3c(cccc13)C(=O)NC2=O [Compound 4-ANI, 8-amino-3-azatricyclo[7.3.1.0^{5,13}]trideca-1(12),5,7,9(13),10-pentaene-2,4-dione] | 7.37 | 7.66 | 42.7 | inhibition of pADPr formation in parasites ([6]; 215 nM): did not show complete inhibition
Cc1nc2c(c(=O)[nH]1)CSCC2 [DR2313, 2-methyl-1H,4H,5H,7H,8H-thiopyrano[4,3-d]pyrimidin-4-one] | 5.85 |  | 1380 | 
Nc1ncnc2c1ncn2[C@@H]1O[C@H](C(=O)N2CCN(CC(=O)Nc3cccc4c3CNC4=O)CC2)[C@@H](O)[C@H]1O [EB-47, 2-(4-{[(2S,3S,4R,5R)-5-(6-amino-9H-purin-9-yl)-3,4-dihydroxyoxolan-2-yl]carbonyl}piperazin-1-yl)-N-(1-oxo-2,3-dihydro-1H-isoindol-4-yl)acetamide] |  | 7.35 |  | selectivity for TcPARP over hPARP-1 [7]: approximately five-fold; inhibition of pADPr formation in parasites ([6]; 43 nM): did not inhibit TcPARP at all; inhibition of pADPr formation in human cells [8]: inhibit pADPr formation
CC1CS(=O)(=O)CCN1/N=C/c1ccc([N+](=O)[O-])o1 (centres unmarked) [Nifurtimox] |  |  |  | effect on epimastigote growth ([4]; 2.5 µM): small effect
O=C(c1cc(Cc2n[nH]c(=O)c3ccccc23)ccc1F)N1CCN(C(=O)C2CC2)CC1 [Olaparib, 4-({3-[(4-cyclopropanecarbonylpiperazin-1-yl)carbonyl]-4-fluorophenyl}methyl)-1,2-dihydrophthalazin-1-one] | 8.47 |  | 3.39 | decrease in growth of the parasites ([4]; 25 nM): 50%; effect on epimastigote growth ([4]; 25 nM): diminished epimastigote growth significantly; number of trypomastigotes in the supernatant ([9]; 25 nM): no significant difference; number of amastigotes per cell ([9]; 25 nM in growth medium): decrease in the number of amastigotes per cell; % of Infected Cells, Day 2 ([9]; Olaparib 25 nM, mean±SD): 38.67±7.68%; % of Infected Cells, Day 4 ([9]; Olaparib 25 nM, mean±SD): 13.54±3.40 %; % of Infected Cells, Day 6 ([9]; Olaparib 25 nM, mean±SD): 22.03±2.36 %; growth of uninfected Vero cells [10]: did not alter the growth of the cell line; number of amastigotes per cell ([11]; day 6 post-infection): markedly decreased; number of trypomastigotes in the growth medium ([11]; day 9 post-infection): no significant difference
CN(C)CC(=O)Nc1ccc2[nH]c(=O)c3ccccc3c2c1 [PJ-34, 2-(dimethylamino)-N-(6-oxo-5,6-dihydrophenanthridin-2-yl)acetamide] | 6.64 |  | 224 | 
O=c1[nH]c2ccccc2c2ccccc12 [Phenanthridinone, 5,6-dihydrophenanthridin-6-one] | 5.80 | 6.25 | 1620 | 
Oc1nc(C2CC2)nc2c1CSCC2 [RF03876, 2-cyclopropyl-5H,7H,8H-thiopyrano[4,3-d]pyrimidin-4-ol] | 5.89 |  | 1260 | 
CNCc1ccc(-c2[nH]c3cc(F)cc4c3c2CCNC4=O)cc1 [Rucaparib, 6-fluoro-2-{4-[(methylamino)methyl]phenyl}-3,10-diazatricyclo[6.4.1.0^{4,13}]trideca-1,4(13),5,7-tetraen-9-one] | 7.60 |  | 25.7 | 
C[C@]1(c2nc3c(C(N)=O)cccc3[nH]2)CCCN1 [Veliparib, 2-[(2R)-2-methylpyrrolidin-2-yl]-1H-1,3-benzodiazole-4-carboxamide] | 7.08 |  | 83.2 | pKi [3]: 8.30
CC1(C)CCC2=C(O1)c1ccccc1C(=O)C2=O [β-lapachone] |  |  |  | effect on epimastigote growth ([4]; 2.5 µM): small effect
